Reference: patent publication US20250295763A1 (priority 2024, published 2025)
Where two headings read alike, the source gives them in different places. Peptide text beside a SMILES is read from it. * marks the point of attachment. X1 = CCCCCCCCCCCCCCCC(=O)OCC(C*)OC(=O)CCCCCCCCCCCCCCC

What was measured:
[1] = for Average body weight change (%) Post-dose 1 D 1 / Body weight change (%) Post-dose 1 D 1: i.m. Days 0 and 14, 0.3 mcg H3N2; for Average body weight change (%) Post-dose 1 D 2 / Average body weight change (%) Post-dose 1 D 14 / Average body weight change (%) Post-dose 2 D 15 / Average body weight change (%) Post-dose 2 D 16 / Average body weight change (%) Post-dose 2 D 21 / Body weight change (%) Post-dose 1 D 2 / Body weight change (%) Post-dose 1 D 14 / Body weight change (%) Post-dose 2 D 15 / Body weight change (%) Post-dose 2 D 16 / Body weight change (%) Post-dose 2 D 21: same groups
H3N2 = format: in vivo, C57BL/6 mice
[2] = background statement; cited from earlier work
[3] = Table 3, 5/50 mcg TLR4 agonist/Synsap, alone: 5 mcg 3D-6A-PHAD, 5 mcg EcML, 10 mcg TLR4-1, 50 mcg Synsap, 5/5 mcg AS01B
[4] = Table 4, after the boost (day 28), 5 mcg TLR4 agonist / 50 mcg Synsap, 0.3 mcg H3N2
[5] = Table 5, 100 mcg Synsap 5, 10 mcg Pam3CSK4
[6] = Table 6, after the boost (day 28), 100 mcg Synsap 5, 10 mcg Pam3CSK4, 0.3 mcg H3N2
[7] = Table 7, 10 mcg R848 with 2, 10, 50 or 100 mcg Synsap 14
[8] = Table 8, after the boost (day 28), 10 mcg R848 with 2, 10, 50 or 100 mcg Synsap 14, 0.3 mcg H3N2

COc1ccc(CCCCCCCCNC(=O)[C@H]2O[C@@H](O[C@H]3CCC4(C)C5CC=C6C7CC(C)(C)CC[C@]7(C(=O)O[C@@H]7OC(C)[C@H](O)[C@H](O)C7O[C@@H]7OC(C)[C@H](O[C@@H]8OC[C@@H](O)[C@H](O)C8O)[C@H](O)C7O)C(O)CC6(C)[C@@]5(C)CC[C@H]4[C@@]3(C)C=O)[C@H](O)[C@@H](O)[C@@H]2O)cc1 (some centres unmarked) [Synsap 1]
Average body weight change (%) Post-dose 1 D 1 [1, 3]: −1.096%
Average body weight change (%) Post-dose 1 D 2 ([1]; Table 3): −1.736%
Average body weight change (%) Post-dose 1 D 14 ([1]; Table 3): 3.753%
Average body weight change (%) Post-dose 2 D 15 ([1]; Table 3): 2.417%
Average body weight change (%) Post-dose 2 D 16 ([1]; Table 3): −1.393%
Average body weight change (%) Post-dose 2 D 21 ([1]; Table 3): 6.148%
HI titers GMT mean (H3N2; [4]): 320
HI titers Fold (compare to AS01B) (H3N2; Table 4, day 28): 0.25
HI titers Fold (compare to H3N2) (H3N2; Table 4, day 28): 2

CC1O[C@@H](OC(=O)[C@]23CCC(C)(C)CC2C2=CCC4C5(C)CC[C@H](O[C@@H]6O[C@H](C(=O)NCCCCCCCCc7ccc(Oc8ccccc8)cc7)[C@@H](O)[C@H](O)[C@H]6O)[C@](C)(C=O)[C@@H]5CC[C@]4(C)C2(C)CC3O)C(O[C@@H]2OC(C)[C@H](O[C@@H]3OC[C@@H](O)[C@H](O)C3O)[C@H](O)C2O)[C@@H](O)[C@H]1O (some centres unmarked) [Synsap 3]
Average body weight change (%) Post-dose 1 D 1 ([1]; Table 1, 5 mcg 3D-PHAD with 5, 50, 75 or 100 mcg Synsap 3, Synsap 3 alone 50 mcg): 2.176%
Average body weight change (%) Post-dose 1 D 2 ([1]; Table 1): 2.174%
Average body weight change (%) Post-dose 1 D 14 ([1]; Table 1): 6.946%
Average body weight change (%) Post-dose 2 D 15 ([1]; Table 1): −0.739%
Average body weight change (%) Post-dose 2 D 16 ([1]; Table 1): 1.208%
Average body weight change (%) Post-dose 2 D 21 ([1]; Table 1): 2.329%
Average body weight change (%) Post-dose 1 D 1 [1, 3]: 2.176%
Average body weight change (%) Post-dose 1 D 2 ([1]; Table 3): 2.174%
Average body weight change (%) Post-dose 1 D 14 ([1]; Table 3): 6.946%
Average body weight change (%) Post-dose 2 D 15 ([1]; Table 3): −0.739%
Average body weight change (%) Post-dose 2 D 16 ([1]; Table 3): 1.208%
Average body weight change (%) Post-dose 2 D 21 ([1]; Table 3): 2.329%
HI titers GMT mean (H3N2; [4]): 192
HI titers Fold (compare to AS01B) (H3N2; Table 4, day 28): 0.15
HI titers Fold (compare to H3N2) (H3N2; Table 4, day 28): 1.2

CCCCCCCCCCCCCCCC(=O)OCC(CSC[C@H](N)C(=O)N[C@@H](CO)C(=O)N[C@@H](CCCCN)C(=O)N[C@@H](CCCCN)C(=O)N[C@@H](CCCCN)C(=O)N[C@@H](CCCCN)C(=O)O)OC(=O)CCCCCCCCCCCCCCC (some centres unmarked) [Pam3CSK4, reference compound] (H-C(X1)SKKKK-OH)
Body weight change (%) Post-dose 1 D 1 [1, 5]: −0.996%
Body weight change (%) Post-dose 1 D 2 ([1]; Table 5): 2.635%
Body weight change (%) Post-dose 1 D 14 ([1]; Table 5): 6.308%
Body weight change (%) Post-dose 2 D 15 ([1]; Table 5): −0.998%
Body weight change (%) Post-dose 2 D 16 ([1]; Table 5): 0.169%
Body weight change (%) Post-dose 2 D 21 ([1]; Table 5): 4.551%
HI titers GMT mean (H3N2; [6]): 2176
HI Titers Fold (compare to CpG1018) (H3N2; Table 6, day 28): 1.0
HI Titers Fold (compare to SynSap 17) (H3N2; Table 6, day 28): 1.1
HI titers Fold (compare to H3N2) (H3N2; Table 6, day 28): 14

CC1O[C@@H](OC(=O)[C@]23CCC(C)(C)CC2C2=CCC4C5(C)CC[C@H](O[C@@H]6O[C@H](C(=O)NCCCCCCCCc7ccc(Oc8ccccc8)cc7)[C@@H](O)[C@H](O)[C@H]6O)[C@](C)(C=O)[C@@H]5CC[C@]4(C)C2(C)CC3O)C(O[C@@H]2OC(C)[C@H](O[C@@H]3OC[C@@H](O)[C@H](O)C3O)[C@H](O[C@@H]3OC(CO)[C@@H](O)[C@H](O)C3O)C2O)[C@@H](O)[C@H]1O (some centres unmarked) [Synsap 17]
Body weight change (%) Post-dose 1 D 1 ([1]; Table 9, 10 mcg CpG 1018 with 10, 50, 75 or 100 mcg Synsap 17, or 50 mcg CpG 1018 with 10 mcg Synsap 17): −1.769%
Body weight change (%) Post-dose 1 D 2 ([1]; Table 9): −0.704%
Body weight change (%) Post-dose 1 D 14 ([1]; Table 9): 3.586%
Body weight change (%) Post-dose 2 D 15 ([1]; Table 9): −0.277%
Body weight change (%) Post-dose 2 D 16 ([1]; Table 9): −0.654%
Body weight change (%) Post-dose 2 D 21 ([1]; Table 9): 2.921%
HI titer GMT mean (H3N2; Table 10, after the boost (day 28), CpG 1018 / Synsap 17 ratios, 0.3 mcg H3N2): 183.8
HI titer Fold (compare to CpG1018) (H3N2; Table 10, day 28): 0.6
HI titer Fold (compare to H3N2) (H3N2; Table 10, day 28): 1.1
HI titer Fold (compare to Synsap 17) (H3N2; Table 10, day 28): 1.0

CC1O[C@@H](OC(=O)[C@]23CCC(C)(C)CC2C2=CCC4C5(C)CC[C@H](O[C@@H]6O[C@H](C(=O)NCCCCCCCCc7ccc(N8CCOCC8)cc7)[C@@H](O)[C@H](O)[C@H]6O)[C@](C)(C=O)[C@@H]5CC[C@]4(C)C2(C)CC3O)C(O[C@@H]2OC(C)[C@H](O[C@@H]3OC[C@@H](O)[C@H](O)C3O)[C@H](O)C2O)[C@@H](O)[C@H]1O (some centres unmarked) [Synsap 5]
Body weight change (%) Post-dose 1 D 1 [1, 5]: −3.166%
Body weight change (%) Post-dose 1 D 2 ([1]; Table 5): 1.523%
Body weight change (%) Post-dose 1 D 14 ([1]; Table 5): 4.909%
Body weight change (%) Post-dose 2 D 15 ([1]; Table 5): −0.174%
Body weight change (%) Post-dose 2 D 16 ([1]; Table 5): 3.144%
Body weight change (%) Post-dose 2 D 21 ([1]; Table 5): 7.000%
HI titers GMT mean (H3N2; [6]): 2048
HI Titers Fold (compare to CpG1018) (H3N2; Table 6, day 28): 0.9
HI Titers Fold (compare to SynSap 17) (H3N2; Table 6, day 28): 1.0
HI titers Fold (compare to H3N2) (H3N2; Table 6, day 28): 13

CCC(C)C(CC(O)CC(=O)OC1C(C)OC(OC(=O)C23CCC(C)(C)CC2C2=CCC4C5(C)CCC(OC6OC(C(=O)O)C(O)C(OC7OCC(O)C(O)C7O)C6OC6OC(CO)C(O)C(O)C6O)C(C)(C=O)C5CCC4(C)C2(C)CC3O)C(OC2OC(C)C(OC3OCC(O)C(OC4OCC(O)(CO)C4O)C3O)C(OC3OC(CO)C(O)C(O)C3O)C2O)C1O)OC(=O)CC(O)CC(OC1OC(COC2OC(C)C(O)C(O)C2O)C(O)C1O)C(C)CC (centres unmarked) [QS-17]
solubility in water [2]: water-soluble

CCOCc1nc2c(N)nc3ccccc3c2n1CC(C)(C)O [Synsap R848, Resiquimod, reference compound]
Body weight change (%) Post-dose 1 D 1 [1, 7]: −3.012%
Body weight change (%) Post-dose 1 D 2 ([1]; Table 7): −0.416%
Body weight change (%) Post-dose 1 D 14 ([1]; Table 7): 5.224%
Body weight change (%) Post-dose 2 D 15 ([1]; Table 7): −4.078%
Body weight change (%) Post-dose 2 D 16 ([1]; Table 7): −0.804%
Body weight change (%) Post-dose 2 D 21 ([1]; Table 7): 1.856%
HI titer GMT mean (H3N2; [8]): 183.8
HI titer Fold (compare to H3N2 alone) (H3N2; Table 8, day 28): 1.1
HI titer Fold (compare to R848 treated group) (H3N2; Table 8, day 28): 1.0
HI titer Fold (compare to SynSap 14 treated group) (H3N2; Table 8, day 28): 1.0

CCCCCCCCCCCCCC(=O)O[C@H](CCCCCCCCCCC)CC(=O)OC1C(NC(=O)C[C@@H](CCCCCCCCCCC)OC(=O)CCCCCCCCCCC)[C@H](OCC2O[C@H](O)C(NC(=O)C[C@H](O)CCCCCCCCCCC)C(OC(=O)C[C@H](O)CCCCCCCCCCC)[C@@H]2O)OC(CO)[C@H]1OP(=O)(O)O (some centres unmarked) [EcML, reference compound]
Average body weight change (%) Post-dose 1 D 1 [1, 3]: −3.607%
Average body weight change (%) Post-dose 1 D 2 ([1]; Table 3): −1.832%
Average body weight change (%) Post-dose 1 D 14 ([1]; Table 3): 7.914%
Average body weight change (%) Post-dose 2 D 15 ([1]; Table 3): −3.002%
Average body weight change (%) Post-dose 2 D 16 ([1]; Table 3): −0.735%
Average body weight change (%) Post-dose 2 D 21 ([1]; Table 3): 1.468%
HI titers GMT mean (H3N2; [4]): 403.2
HI titers Fold (compare to AS01B) (H3N2; Table 4, day 28): 0.3
HI titers Fold (compare to H3N2) (H3N2; Table 4, day 28): 2.5

CC1O[C@@H](OC2[C@H](OC(=O)[C@]34CCC(C)(C)CC3C3=CCC5C6(C)CC[C@H](O[C@@H]7O[C@H](C(=O)NCCCCCCCCc8ccc(Oc9ccc(F)cc9)cc8)[C@@H](O)[C@H](O)[C@H]7O)[C@](C)(C=O)[C@@H]6CC[C@]5(C)C3(C)CC4O)OC[C@H](O)[C@H]2O)C(O)[C@@H](O)[C@H]1O[C@@H]1OC[C@@H](O)[C@H](O)C1O (some centres unmarked) [Synsap 14]
Body weight change (%) Post-dose 1 D 1 [1, 7]: −1.769%
Body weight change (%) Post-dose 1 D 2 ([1]; Table 7): −0.704%
Body weight change (%) Post-dose 1 D 14 ([1]; Table 7): 3.586%
Body weight change (%) Post-dose 2 D 15 ([1]; Table 7): −0.277%
Body weight change (%) Post-dose 2 D 16 ([1]; Table 7): −0.654%
Body weight change (%) Post-dose 2 D 21 ([1]; Table 7): 3.064%
HI titer GMT mean (H3N2; [8]): 192
HI titer Fold (compare to H3N2 alone) (H3N2; Table 8, day 28): 1.2
HI titer Fold (compare to R848 treated group) (H3N2; Table 8, day 28): 1.0
HI titer Fold (compare to SynSap 14 treated group) (H3N2; Table 8, day 28): 1.0

Poly(I:C) [reference compound]
HI titer Fold (compare to H3N2) (H3N2; mouse, in vivo): 1
HI titer Fold (compare to SynSap 21) (H3N2; mouse, in vivo): 0.5
HI titer Fold (compare to TLR3) (H3N2; mouse, in vivo): 0.3299
HI titer GMT mean (H3N2; mouse, in vivo): 640

CCCCCCCCCCCCCC(=O)O[C@H](CCCCCCCCCCC)CC(=O)NC1C(OC(=O)C[C@@H](CCCCCCCCCCC)OC(=O)CCCCCCCCCCCCC)[C@H](OP(=O)(O)O)C(CO)O[C@H]1OCC1O[C@H](O)C(NC(=O)C[C@@H](CCCCCCCCCCC)OC(=O)CCCCCCCCCCCCC)C(O)[C@@H]1O.N (some centres unmarked) [Synsap 3D-6A-PHAD, reference compound]
Average body weight change (%) Post-dose 1 D 1 [1, 3]: −5.362%
Average body weight change (%) Post-dose 1 D 2 ([1]; Table 3): −2.900%
Average body weight change (%) Post-dose 1 D 14 ([1]; Table 3): 6.215%
Average body weight change (%) Post-dose 2 D 15 ([1]; Table 3): −1.147%
Average body weight change (%) Post-dose 2 D 16 ([1]; Table 3): 0.463%
Average body weight change (%) Post-dose 2 D 21 ([1]; Table 3): 2.331%
HI titers GMT mean (H3N2; [4]): 806.3
HI titers Fold (compare to AS01B) (H3N2; Table 4, day 28): 0.6
HI titers Fold (compare to H3N2) (H3N2; Table 4, day 28): 5.0

CCC(C)C(CC(O)CC(=O)OC1C(C)OC(OC(=O)C23CCC(C)(C)CC2C2=CCC4C5(C)CCC(OC6OC(C(=O)O)C(O)C(OC7OCC(O)C(O)C7O)C6OC6OC(CO)C(O)C(O)C6O)C(C)(C=O)C5CCC4(C)C2(C)CC3O)C(OC2OC(C)C(OC3OCC(O)C(OC4OCC(O)(CO)C4O)C3O)C(OC3OC(CO)C(O)C(O)C3O)C2O)C1O)OC(=O)CC(O)CC(OC1OC(CO)C(O)C1O)C(C)CC (centres unmarked) [QS-18]
solubility in water [2]: water-soluble
